Patent publication US20110224079A1, “SPIROHETEROCYCLIC N-OXYAMIDES AS PESTICIDES” (SYNGENTA CROP PROTECTION LLC, priority 2008, published 2011)

Columns and labels:
[1] = tested on: Aphis Craccivora (cowpea aphid); assay: Example B11: translaminar activity against Aphis craccivora on French bean leaves; assay type: in vivo; details: 120 h, upper leaf side painted, aphids on lower side, 5 days
Description: Translaminar Activity Against Aphis Craccivora (Cowpea Aphid)
French bean leaves (Phaseolus vulgaris) are infested with about 20 mixed age individuals on the lower leaf side using clip cages. 1 day after the infestation, the upper side of the leaves is treated with the test solution by painting. 5 days later, samples are checked for mortality.

[2] = tested on: Myzus persicae (green peach aphid); assay: Example B13: drench activity against Myzus persicae, pea seedlings in field soil; details: 168 h, read-out: drench activity (mortality)
[3] = tested on: Nilaparvata lugens (brown rice planthopper); assay: Example B8: activity against Nilaparvata lugens, sprayed rice seedlings (larvicide, feeding/contact); details: in Oryza sativa, read-out: activity (mortality, growth regulation, effects on F1 generation)
[4] = tested on: Myzus persicae (green peach aphid); assay: Example B2: activity against Myzus persicae, pea seedling roots in test solution (systemic/feeding, curative); details: 144 h, read-out: activity (mortality)
[5] = tested on: Myzus persicae (green peach aphid); assay: Example B1: activity against Myzus persicae, sprayed sunflower leaf discs (feeding/residual contact, preventive); details: foliar, 144 h, read-out: activity (mortality)
[6] = tested on: Tetranychus urticae (two-spotted spider mite); assay: Example B4: activity against Tetranychus urticae, sprayed bean leaf discs (feeding/residual contact, preventive); details: foliar, 192 h, read-out: activity (egg, larval and adult mortality)
[7] = tested on: Aphis Craccivora (cowpea aphid); assay: Example B10: activity against Aphis craccivora, pea seedling roots in test solution (systemic/feeding); assay type: in vivo; details: 144 h, roots of infested pea seedlings in test solution, 6 days
Description: Activity Against Aphis Craccivora (Cowpea Aphid)
(Mixed Population, Systemic/Feeding)

[8] = tested on: Myzus persicae (green peach aphid); assay: Example B17: activity against Myzus persicae on sprayed pepper plants (feeding/residual contact); assay type: in vivo; details: 144 h, infested pepper plants sprayed, 6 days

| Compound | mortality at 400 ppm [1] [%] | mortality at 25 ppm [2] [%] | mortality at 400 ppm [3] [%] | mortality at 400 ppm [4] [%] | mortality at 400 ppm [5] [%] | mortality at 400 ppm [6] [%] | mortality at 400 ppm [7] [%] | mortality at 200 ppm [8] [%] |
| --- | --- | --- | --- | --- | --- | --- | --- | --- |
| COCON1C(=O)C(c2cc(C)ccc2C)=C(OC(=O)C2CC2)C12CCN(OC)CC2 [P1.4, Cyclopropanecarboxylic acid 3-(2,5-dimethyl-phenyl)-8-methoxy-1-methoxymethoxy-2-oxo-1,8-diaza-spiro[4.5]dec-3-en-4-yl ester] | > 80 | > 80 | > 80 | > 80 | > 80 | > 80 |  |  |
| CCOC(=O)OC1=C(c2cc(-c3ccc(Cl)cc3)ccc2C)C(=O)N(OCOC)C12CCN(OC)CC2 [P1.22] |  |  |  |  | > 80 | > 80 |  |  |
| CCOC(=O)OC1=C(c2c(C)cc(C)cc2C)C(=O)N(OCC2(C)COC2)C12CCN(OC)CC2 [P1.23] | > 80 | > 80 |  | > 80 |  |  | > 80 |  |
| CCOC(=O)OC1=C(c2c(C)cc(C)cc2C)C(=O)N(OCCOC2CCCCO2)C12CCN(OC)CC2 (stereo not drawn) [P1.25] |  |  | > 80 |  |  | > 80 | > 80 |  |
| CCOC(=O)OC1=C(c2c(C)cc(C)cc2C)C(=O)N(OC2CCCC2)C12CCN(OC)CC2 [P1.28] |  |  | > 80 |  |  | > 80 |  |  |
| C#CCON1C(=O)C(c2c(C)cc(C)cc2C)=C(OC(=O)OCC)C12CCN(OC)CC2 [P1.29] |  |  |  | > 80 | > 80 | > 80 |  |  |
| CCOC(=O)OC1=C(c2c(Cl)ccc(C)c2F)C(=O)N(OC2CCCO2)C12CCN(OC)CC2 (stereo not drawn) [P1.43] |  |  |  | > 80 |  | > 80 |  |  |
| CCOC(=O)OC1=C(c2c(C)cc(C)cc2C)C(=O)N(OCCCOC)C12CCN(OC)CC2 [P1.44] |  |  |  | > 80 | > 80 | > 80 |  | ≥ 80 |
| CCOC(=O)OC1=C(c2c(C)ccc(C)c2C)C(=O)N(OCOC)C12CCN(OC)CC2 [P1.53] | > 80 | > 80 | > 80 | > 80 |  |  | > 80 | ≥ 80 |
| CCOC(=O)OC1=C(c2cc(C)c(C)cc2C)C(=O)N(OC2CCCO2)C12CCN(OC)CC2 (stereo not drawn) [P1.54] |  |  |  |  | > 80 | > 80 |  |  |
| CCOC(=O)OC1=C(c2c(C)ccc(Cl)c2C)C(=O)N(OCOC)C12CCN(OC)CC2 [P1.55] | > 80 | > 80 | > 80 | > 80 | > 80 |  | > 80 | ≥ 80 |
| CCOC(=O)OC1=C(c2cc(C)c(C)cc2C)C(=O)N(OCOC)C12CCN(OC)CC2 [P1.56] |  |  |  | > 80 | > 80 | > 80 |  | ≥ 80 |
| CCOC(=O)OC1=C(c2c(C)cc(C)cc2Br)C(=O)N(OC2CCCO2)C12CCN(OC)CC2 (stereo not drawn) [P1.69] |  |  |  | > 80 | > 80 | > 80 |  | ≥ 80 |
| CCOC(=O)OC1=C(c2c(C)cc(C)cc2Cl)C(=O)N(OC)C12CCN(OC)CC2 [P1.70] | > 80 | > 80 | > 80 | > 80 | > 80 |  | > 80 |  |
| CCOC(=O)OC1=C(c2c(C)cc(C)cc2C)C(=O)N(OC2CCOCC2)C12CCN(OC)CC2 [P1.76] |  |  |  | > 80 |  | > 80 |  | ≥ 80 |
| CCOC(=O)OC1=C(c2c(C)cc(C)cc2C)C(=O)N(OCc2ccoc2)C12CCN(OC)CC2 [P1.77] |  |  |  | > 80 |  | > 80 |  | ≥ 80 |
| CCOC(=O)OC1=C(c2c(C)cc(C)cc2C)C(=O)N(OCC2CCCC2)C12CCN(OC)CC2 [P1.83] |  |  |  | > 80 |  | > 80 |  | ≥ 80 |
| CCOC(=O)OC1=C(c2c(C)cc(C)cc2C)C(=O)N(OCC2(CC)COC2)C12CCN(OC)CC2 [P1.84] |  |  |  | > 80 |  | > 80 |  |  |
| CCOC(=O)OC1=C(c2c(C)cc(Br)cc2C)C(=O)N(OC)C12CCN(OC)CC2 [P1.88] |  | > 80 | > 80 | > 80 | > 80 | > 80 |  | ≥ 80 |
| CCOC(=O)OC1=C(c2c(C)cc(C)cc2C)C(=O)N(OC2CCN(OC)CC2)C12CCN(OC)CC2 [P1.104] |  |  |  | > 80 |  | > 80 |  |  |
| CCOC(=O)OC1=C(c2c(C)cc(C)cc2C)C(=O)N(OCC2CCC2)C12CCN(OC)CC2 [P1.106] |  |  |  | > 80 | > 80 | > 80 |  | ≥ 80 |

| Compound | mortality at 400 ppm [1] [%] | mortality at 25 ppm [2] [%] | mortality at 400 ppm [3] [%] | mortality at 400 ppm [4] [%] | mortality at 400 ppm [5] [%] | mortality at 400 ppm [6] [%] | mortality at 400 ppm [7] [%] | mortality at 200 ppm [8] [%] |
| --- | --- | --- | --- | --- | --- | --- | --- | --- |
| CCOC(=O)OC1=C(c2c(C)cc(C)cc2Cl)C(=O)N(OC2CCCO2)C12CCN(OC)CC2 (stereo not drawn) [P1.107] | > 80 | > 80 | > 80 | > 80 | > 80 |  | > 80 | ≥ 80 |
| CCOC(=O)OC1=C(c2c(C)cc(C)cc2C)C(=O)N(OCC2CCCOC2)C12CCN(OC)CC2 (stereo not drawn) [P1.109] |  |  |  | > 80 | > 80 | > 80 |  |  |
| CON1CCC2(CC1)C(O)=C(c1cc(C)ccc1C)C(=O)N2OC [P2.1] |  | > 80 |  | > 80 | > 80 |  |  |  |
| COCCON1C(=O)C(c2cc(C)ccc2C)=C(O)C12CCN(OC)CC2 [P2.3] | > 80 | > 80 | > 80 | > 80 | > 80 |  |  | ≥ 80 |
| COCON1C(=O)C(c2cc(-c3ccc(Cl)cc3)ccc2C)=C(O)C12CCN(OC)CC2 [P2.17] |  |  |  |  | > 80 | > 80 |  |  |
| CON1CCC2(CC1)C(O)=C(c1c(C)cc(C)cc1C)C(=O)N2OCC1(C)COC1 [P2.19] | > 80 |  | > 80 | > 80 | > 80 | > 80 | > 80 | ≥ 80 |
| CON1CCC2(CC1)C(O)=C(c1c(C)cc(C)cc1C)C(=O)N2OCC1CCCCO1 (stereo not drawn) [P2.23] | > 80 |  | > 80 | > 80 | > 80 |  | > 80 |  |
| CON1CCC2(CC1)C(O)=C(c1c(C)cc(C)cc1C)C(=O)N2OC1CCCC1 [P2.25] |  |  | > 80 | > 80 | > 80 | > 80 |  |  |
| CON1CCC2(CC1)C(O)=C(c1cc(C)c(Cl)cc1C)C(=O)N2OC [P2.31] |  |  |  |  | > 80 | > 80 |  |  |
| COCCON1C(=O)C(c2c(C)cc(C)cc2Cl)=C(O)C12CCN(OC)CC2 [P2.35] |  |  |  | > 80 | > 80 | > 80 |  |  |
| CON1CCC2(CC1)C(O)=C(c1c(Cl)ccc(C)c1F)C(=O)N2OC [P2.48] |  |  |  | > 80 |  | > 80 |  |  |
| CON1CCC2(CC1)C(O)=C(c1c(F)ccc(C)c1Cl)C(=O)N2OC [P2.58] |  |  |  | > 80 |  | > 80 |  |  |
| CON1CCC2(CC1)C(O)=C(c1c(C)cc(C)cc1C)C(=O)N2OC1CCCCO1 (stereo not drawn) [P2.65] |  |  |  | > 80 | > 80 | > 80 |  | ≥ 80 |
| CON1CCC2(CC1)C(O)=C(c1c(C)cc(C)cc1Br)C(=O)N2OC1CCCO1 (stereo not drawn) [P2.69] |  |  |  | > 80 | > 80 | > 80 |  | ≥ 80 |
| CON1CCC2(CC1)C(O)=C(c1c(C)cc(Br)cc1C)C(=O)N2OC [P2.79] |  |  |  | > 80 |  | > 80 |  | ≥ 80 |
| CON1CCC2(CC1)C(O)=C(c1c(C)cc(C)cc1C)C(=O)N2OCC1CCCC1 [P2.85] |  |  |  | > 80 | > 80 | > 80 |  | ≥ 80 |
| CCC1(CON2C(=O)C(c3c(C)cc(C)cc3C)=C(O)C23CCN(OC)CC3)COC1 [P2.86] |  |  |  |  | > 80 | > 80 |  | ≥ 80 |
| CON1CCC2(CC1)C(O)=C(c1c(C)cc(C)cc1Cl)C(=O)N2OC1CCCO1 (stereo not drawn) [P2.94] |  |  |  | > 80 | > 80 | > 80 |  | ≥ 80 |
| CON1CCC2(CC1)C(O)=C(c1c(C)cc(C)cc1C)C(=O)N2OCC1CCC1 [P2.97] |  |  |  | > 80 | > 80 | > 80 |  | ≥ 80 |
| CON1CCC2(CC1)C(O)=C(c1c(C)cc(C)cc1C)C(=O)N2OCC1CCCOC1 (stereo not drawn) [P2.100] |  |  |  | > 80 | > 80 | > 80 |  |  |
